{"source": "patent US20100267561A1", "about": "“HERBICIDAL PYRIDAZINONE DERIVATIVES” (priority 2007, published 2010)", "assay_type_in_all_cases": "in vivo", "key": {"[1]": {"tested_on": "ducksalad (Heteranthera limosa)", "assay": "Test B flooded paddy test plant response", "details": "Flood (flooded paddy test), scale 0 to 100, 0 no effect, 100 complete control", "method_in_brief": "(§1)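 Paddy-water application to 2-leaf plants in pots held under 3 cm of flooding; response is a 0–100 visual control rating against controls after 13 to 15 days, and a dash marks a missing result.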"}, "[2]": {"tested_on": "rice (Oryza sativa)", "assay": "Test B flooded paddy test plant response", "details": "Flood (flooded paddy test), scale 0 to 100, 0 no effect, 100 complete control", "method_in_brief": "as §1"}, "[3]": {"tested_on": "umbrella sedge (Cyperus difformis)", "assay": "Test B flooded paddy test plant response", "details": "Flood (flooded paddy test), scale 0 to 100, 0 no effect, 100 complete control", "method_in_brief": "as §1"}, "[4]": {"tested_on": "Italian ryegrass (Lolium multiflorum)", "assay": "Test C pre-/postemergence plant response", "details": "Preemergence", "method_in_brief": "(§2)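 Seeds are planted and sprayed preemergence, while established plants at the 1- to 4-leaf stage (2 to 18 cm) receive postemergence sprays of the same surfactant-containing, non-phytotoxic solvent formulation. After 15 to 25 days under controlled conditions, injury is scored visually from 0 (no effect) to 100 (complete control).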"}, "[5]": {"tested_on": "annual bluegrass (Poa annua)", "assay": "Test C pre-/postemergence plant response", "details": "Preemergence", "method_in_brief": "as §2"}, "[6]": {"tested_on": "blackgrass (Alopecurus myosuroides)", "assay": "Test C pre-/postemergence plant response", "details": "Preemergence", "method_in_brief": "as §2"}, "[7]": {"tested_on": "canarygrass (Phalaris minor)", "assay": "Test C pre-/postemergence plant response", "details": "Preemergence", "method_in_brief": "as §2"}, "[8]": {"tested_on": "downy bromegrass (Bromus tectorum)", "assay": "Test C pre-/postemergence plant response", "details": "Preemergence", "method_in_brief": "as §2"}, "[9]": {"tested_on": "green foxtail (Setaria viridis)", "assay": "Test C pre-/postemergence plant response", "details": "Preemergence", "method_in_brief": "as §2"}, "[10]": {"tested_on": "pigweed (Amaranthus retroflexus)", "assay": "Test C pre-/postemergence plant response", "details": "Preemergence", "method_in_brief": "as §2"}, "[11]": {"tested_on": "spring barley (Hordeum vulgare)", "assay": "Test C pre-/postemergence plant response", "details": "Preemergence", "method_in_brief": "as §2"}, "[12]": {"tested_on": "spring wheat (Triticum aestivum)", "assay": "Test C pre-/postemergence plant response", "details": "Preemergence", "method_in_brief": "as §2"}, "[13]": {"tested_on": "wild mustard (Sinapis arvensis)", "assay": "Test C pre-/postemergence plant response", "details": "Preemergence", "method_in_brief": "as §2"}, "[14]": {"tested_on": "wild oat (Avena fatua)", "assay": "Test C pre-/postemergence plant response", "details": "Preemergence", "method_in_brief": "as §2"}, "[15]": {"tested_on": "windgrass (Apera spica-venti)", "assay": "Test C pre-/postemergence plant response", "details": "Preemergence", "method_in_brief": "as §2"}, "[16]": {"tested_on": "winter barley (Hordeum vulgare)", "assay": "Test C pre-/postemergence plant response", "details": "Preemergence", "method_in_brief": "as §2"}, "[17]": {"tested_on": "winter wheat (Triticum aestivum)", "assay": "Test C pre-/postemergence plant response", "details": "Preemergence", "method_in_brief": "as §2"}, "[18]": {"details": "8 g ai/ha, scale 0 to 100 (0 no effect, 100 complete control)"}, "[19]": {"details": "16 g ai/ha, scale 0 to 100 (0 no effect, 100 complete control)"}, "[20]": {"details": "31 g ai/ha, scale 0 to 100 (0 no effect, 100 complete control)"}, "[21]": {"details": "62 g ai/ha, scale 0 to 100, 0 no effect, 100 complete control"}}, "data": [{"smiles": "C#CCOC(=O)Oc1cnn(C)c(=O)c1-n1nc(-c2ccc(Cl)cc2)cc1C", "note": "[Compound 58]", "values": [{"measurement": "Plant response rating, Ducksalad", "setting": "[1]; 62 g ai/ha", "value": 0}, {"measurement": "Plant response rating, Ducksalad", "setting": "[1]; 250 g ai/ha", "value": 45}, {"measurement": "Plant response rating, Rice", "setting": "[2]; 62 g ai/ha", "value": 0}, {"measurement": "Plant response rating, Rice", "setting": "[2]; 250 g ai/ha", "value": 60}, {"measurement": "Plant response rating, Sedge, Umbrella", "setting": "[3]; 62 g ai/ha", "value": 0}, {"measurement": "Plant response rating, Sedge, Umbrella", "setting": "[3]; 250 g ai/ha", "value": 0}, {"measurement": "Plant response rating, Ryegrass, Italian", "setting": "[4]; [18]", "value": 25}, {"measurement": "Plant response rating, Ryegrass, Italian", "setting": "[4]; [19]", "value": 65}, {"measurement": "Plant response rating, Ryegrass, Italian", "setting": "[4]; [20]", "value": 100}, {"measurement": "Plant response rating, Ryegrass, Italian", "setting": "[4]; [21]", "value": 100}, {"measurement": "Plant response rating, Bluegrass", "setting": "[5]; [18]", "value": 0}, {"measurement": "Plant response rating, Bluegrass", "setting": "[5]; [19]", "value": 0}, {"measurement": "Plant response rating, Bluegrass", "setting": "[5]; [20]", "value": 0}, {"measurement": "Plant response rating, Bluegrass", "setting": "[5]; [21]", "value": 0}, {"measurement": "Plant response rating, Blackgrass", "setting": "[6]; [18]", "value": 0}, {"measurement": "Plant response rating, Blackgrass", "setting": "[6]; [19]", "value": 65}, {"measurement": "Plant response rating, Blackgrass", "setting": "[6]; [20]", "value": 98}, {"measurement": "Plant response rating, Blackgrass", "setting": "[6]; [21]", "value": 100}, {"measurement": "Plant response rating, Canarygrass", "setting": "[7]; [18]", "value": 0}, {"measurement": "Plant response rating, Canarygrass", "setting": "[7]; [19]", "value": 60}, {"measurement": "Plant response rating, Canarygrass", "setting": "[7]; [20]", "value": 90}, {"measurement": "Plant response rating, Canarygrass", "setting": "[7]; [21]", "value": 95}, {"measurement": "Plant response rating, Bromegrass, Downy", "setting": "[8]; [18]", "value": 0}, {"measurement": "Plant response rating, Bromegrass, Downy", "setting": "[8]; [19]", "value": 15}, {"measurement": "Plant response rating, Bromegrass, Downy", "setting": "[8]; [20]", "value": 70}, {"measurement": "Plant response rating, Bromegrass, Downy", "setting": "[8]; [21]", "value": 75}, {"measurement": "Plant response rating, Foxtail, Green", "setting": "[9]; [18]", "value": 35}, {"measurement": "Plant response rating, Foxtail, Green", "setting": "[9]; [19]", "value": 98}, {"measurement": "Plant response rating, Foxtail, Green", "setting": "[9]; [20]", "value": 100}, {"measurement": "Plant response rating, Foxtail, Green", "setting": "[9]; [21]", "value": 100}, {"measurement": "Plant response rating, Pigweed", "setting": "[10]; [18]", "value": 0}, {"measurement": "Plant response rating, Pigweed", "setting": "[10]; [21]", "value": 0}, {"measurement": "Plant response rating, Barley, Spring", "setting": "[11]; [18]", "value": 0}, {"measurement": "Plant response rating, Barley, Spring", "setting": "[11]; [19]", "value": 0}, {"measurement": "Plant response rating, Barley, Spring", "setting": "[11]; [20]", "value": 10}, {"measurement": "Plant response rating, Barley, Spring", "setting": "[11]; [21]", "value": 75}, {"measurement": "Plant response rating, Wheat, Spring", "setting": "[12]; [18]", "value": 0}, {"measurement": "Plant response rating, Wheat, Spring", "setting": "[12]; [19]", "value": 50}, {"measurement": "Plant response rating, Wheat, Spring", "setting": "[12]; [20]", "value": 60}, {"measurement": "Plant response rating, Wheat, Spring", "setting": "[12]; [21]", "value": 90}, {"measurement": "Plant response rating, Mustard, Wild", "setting": "[13]; [18]", "value": 0}, {"measurement": "Plant response rating, Mustard, Wild", "setting": "[13]; [19]", "value": 0}, {"measurement": "Plant response rating, Mustard, Wild", "setting": "[13]; [21]", "value": 0}, {"measurement": "Plant response rating, Oat, Wild", "setting": "[14]; [18]", "value": 0}, {"measurement": "Plant response rating, Oat, Wild", "setting": "[14]; [19]", "value": 50}, {"measurement": "Plant response rating, Oat, Wild", "setting": "[14]; [20]", "value": 65}, {"measurement": "Plant response rating, Oat, Wild", "setting": "[14]; [21]", "value": 75}, {"measurement": "Plant response rating, Windgrass", "setting": "[15]; [18]", "value": 0}, {"measurement": "Plant response rating, Windgrass", "setting": "[15]; [19]", "value": 20}, {"measurement": "Plant response rating, Windgrass", "setting": "[15]; [20]", "value": 50}, {"measurement": "Plant response rating, Windgrass", "setting": "[15]; [21]", "value": 70}, {"measurement": "Plant response rating, Barley, Winter", "setting": "[16]; [18]", "value": 0}, {"measurement": "Plant response rating, Barley, Winter", "setting": "[16]; [19]", "value": 0}, {"measurement": "Plant response rating, Barley, Winter", "setting": "[16]; [20]", "value": 0}, {"measurement": "Plant response rating, Barley, Winter", "setting": "[16]; [21]", "value": 75}, {"measurement": "Plant response rating, Wheat, Winter", "setting": "[17]; [18]", "value": 0}, {"measurement": "Plant response rating, Wheat, Winter", "setting": "[17]; [19]", "value": 0}, {"measurement": "Plant response rating, Wheat, Winter", "setting": "[17]; [20]", "value": 60}, {"measurement": "Plant response rating, Wheat, Winter", "setting": "[17]; [21]", "value": 80}]}]}
